Reference: ChEMBL document CHEMBL3400029, “Xanthones from the roots of Maclura cochinchinensis var. gerontogea and their retinoic acid receptor-α agonistic activity” (Bioorg Med Chem Lett, 2015)
Calls of active or inactive are those of the source. The calls are words filed in the database; no cut-off is given here.

Assays:
Type in all cases: cell-based
[1] = biological target: T1, Retinoic acid receptor alpha (Homo sapiens, UniProt P10276); assay: (§1) Agonist activity at RARalpha (unknown origin) expressed in HEK293 cells assessed as transcriptional activation after 48 hrs by luciferase reporter gene assay
T1 sequence (P10276 whole entry): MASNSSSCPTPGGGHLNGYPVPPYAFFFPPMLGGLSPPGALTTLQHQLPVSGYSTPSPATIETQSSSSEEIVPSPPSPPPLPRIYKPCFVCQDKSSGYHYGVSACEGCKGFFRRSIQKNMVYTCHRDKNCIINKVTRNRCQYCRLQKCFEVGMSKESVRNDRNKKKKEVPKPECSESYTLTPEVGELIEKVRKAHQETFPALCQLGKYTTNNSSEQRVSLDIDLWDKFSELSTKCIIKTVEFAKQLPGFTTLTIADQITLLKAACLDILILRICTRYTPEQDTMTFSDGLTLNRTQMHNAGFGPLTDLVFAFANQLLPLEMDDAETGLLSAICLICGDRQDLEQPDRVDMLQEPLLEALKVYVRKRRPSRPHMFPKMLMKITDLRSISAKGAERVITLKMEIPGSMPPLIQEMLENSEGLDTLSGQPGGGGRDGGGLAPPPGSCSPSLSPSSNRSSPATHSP

[2] = biological target: T2, Retinoic acid receptor alpha (Homo sapiens) (UniProt P10276); assay: as §1
T2 sequence (whole entry): T1 sequence (P10276 whole entry)

[3] = biological target: T1, Retinoic acid receptor alpha; assay: Agonist activity at RARalpha (unknown origin) expressed in HEK293 cells assessed as transcriptional activation after 48 hrs by luciferase reporter gene assay in presence of bexarotene
[4] = biological target: T2, Retinoic acid receptor alpha (Homo sapiens); assay: Agonist activity at RARalpha (unknown origin) expressed in HEK293 cells assessed as transcriptional activation at 1 uM after 48 hrs by luciferase reporter gene assay
HEK293 = assay: Cytotoxicity against HEK293 cells at > 1 uM; details: human

| Compound | EC50 [1] [nM] | Activity [2] | EC50 [3] [nM] | Activity [4] | Activity (HEK293) |
| --- | --- | --- | --- | --- | --- |
| C=CC(C)(C)c1c(O)cc2oc3c(O)c4c(cc3c(=O)c2c1O)C=CC(C)(C)O4 [GERONTOXANTHONE B] | 1700 | Dose-dependent effect | 2000 | Active |  |
| CC1Oc2cc3oc4c(O)c5c(cc4c(=O)c3c(O)c2C1(C)C)C=CC(C)(C)O5 (stereo not drawn) [GERONTOXANTHONE A] | 170 | Dose-dependent effect | 200 | Active |  |
| CC(C)=CCc1c(O)ccc2oc3c4c(cc(O)c3c(=O)c12)OC(C)(C)C=C4 | 110 | Dose-dependent effect | 200 | Active |  |
| CC1(C)C=Cc2c(cc(O)c3c(=O)c4c5c(ccc4oc23)OC(C(C)(C)O)C5)O1 (stereo not drawn) | 65 | Dose-dependent effect | 170 | Active |  |
| CC(C)=CCc1c(O)cc(O)c2c(=O)c3c(CC=C(C)C)c(O)ccc3oc12 [GERONTOXANTHONE H] |  |  |  | Active | Toxic |
